Test results: US8871976B2, “Chalcone structure fluorescence dye for embryonic stem cell probe” (National University of Singapore, priority 2010, dated 2014)

Experiments:
mESC and MEF = test: Secondary screening by flow cytometry (mESC and MEF incubated separately); assay type: cell-based, mouse; conditions: 2 μM, 1 hour
Protocol: To evaluate the application of chalcone derivatives as ESC-selective probes, 320 chalcone compounds were screened in mouse ESC (mESC) and mouse embryonic fibroblast (MEF) feeder cells prepared on 384-well cell culture microplates. From the image-based primary screening, 8 compounds that stained mESC consistently with stronger intensity than MEF were selected. For the secondary screening, mESC and MEF were incubated separately with each of the hit compounds and subsequently analyzed using flow cytometry.
(§1) MEFs and mESCs were cultured in 60 mm culture dish for 1 hour in the presence of 2 μM of hit compounds, including CDg4. The cells were harvested by trypsin treatment, washed with PBS and resuspended in PBS. The fluorescence intensity of the cells was measured on Flow Cytometry (BD™ LSR II) with FITC ([…], emission at 560 nm). The dot plot images for each cell type were overlaid using FlowJo7 (Three Star Inc.) For FACS MEF and mESC were cultured in a same dish and the sample was prepared as described above for flow cytometry. The cells gated into SSClow CDgreen4 bright and SSChigh CDgreen4 dim regions were collected using a FACS machine (BD FACSAria™).

[1] = system: induced pluripotent stem cell (iPSC); test: Staining and FACS isolation of induced pluripotent stem cells; assay type: cell-based, mouse; conditions: iPSC from MEF of Oct4-GFP transgenic mice
Protocol: The iPS cells were maintained in mESC culture medium which was changed every day until designated time point. 4 dpi iPS was incubated with 2 μM of CDg4 for 1 hr at 37° C. The cells were harvested by trypsin treatment, washed with PBS and resuspended in PBS. The cells gated into SSClow CDg4 bright (R2) and SSChigh CDg4 dim (R1) regions were collected using a FACS machine (BD FACSAria™).
CDg4 was applied to induced pluripotent stem cell (iPSC) which was generated from MEF of transgenic mice that express GFP under the control of Oct4 (also known as Pou5f1) promoter. […] FACS was used to isolate early iPS cell population stained by CDg4. (FIG. 2). Isolation of the early iPS cell population will facilitate gene profiling using DNA microarray of this cell population. While gene expression profiling for mixture populations or using cell lines are reported, with lack of direct marker or probes for early iPS, it was not possible to study with purified early iPS.
The retroviral packaging cell, PlatE cell, was maintained in DMEM containing 10% FBS, 100 U/ml penicillin, 100 μg/ml streptomycin, 10 μg/ml blasticidin 5 and 1 μg/ml puromycin. […]

[2] = Fluorescence property measurement; assay type: physicochemical
Protocol: All reactions were performed in oven-dried glassware under a positive pressure of nitrogen. Unless otherwise noted, starting materials and solvents were purchased from Aldrich and Acros Organics and used without further purification. Analytical TLC was carried out on Merck 60 F254 silica gel plate (0.25 mm layer thickness) and visualization was done with UV light. Column chromatography was performed on Merck 60 silica gel (230-400 mesh). NMR spectra were recorded on a Bruker Avance 300 NMR spectrometer. Chemical shifts are reported as δ in units of parts per million (ppm) and coupling constants are reported as a J value in Hertz (Hz). Mass of all the compounds was determined by LC-MS of Agilent Technologies with an electrospray ionization source. All fluorescence assays were performed with a Gemini XS fluorescence plate reader.
10 μM solutions in DMSO were prepared and the absorption and emission of library compounds was measured. FIG. 3 is a representative absorbance and fluorescence spectrum.

mixture of mESC and MEF = test: Enrichment of mESC from mESC/MEF mixture using FACS and fluorescence microscopy; assay type: cell-based, mouse; conditions: for mESC enrichment / sorting from mixed-cell population: FACS, mESC and MEF in same dish; for selective staining of ESC versus MEF feeder: live mESC cultured on MEF feeder, fluorescence microscopy
Protocol: To confirm the secondary screening data, a mixture of mESC and MEF was incubated with […]. The cell mixture was sorted using Fluorescence-Activated Cell Sorting (FACS).
as §1

## C=CC(=O)Nc1ccc(C(=O)/C=C/c2ccc(N(C)CCO)cc2)cc1 [CDg4]
mESC and MEF
  selectivity for mESCs (side scatter and fluorescence intensity dot plot overlay of mESC and MEF): most selective for mESCs among the 8 hit compounds
[1]
  staining of iPSC colony: selectively stained the iPSC colony
[2]
  λem: 560 nm
  λex: 430 nm
Mixture of mESC and MEF
  mESC enrichment / sorting from mixed-cell population: selective sorting and isolation from mixture of Feeder cells even up to day 5
  selective staining of ESC versus MEF feeder: much more brightly stained by CDg4 than MEF
Mixture of mESC and MEF; listed as CD4
  mESC enrichment / sorting from mixed-cell population: can be used for mESC enrichment from a mixed-cell population
Mixture of mESC and MEF; listed as CDgreen4
  selective staining of ESC versus MEF feeder: selectively stains embryonic stem cells (ESC) and iPSC in a feeder cell-based culture system
